# Experimental data reported in patent US11844801B2, “Oral compositions of MK2 pathway inhibitor for treatment of immune conditions” (priority 2020, dated 2023).
# Read-outs that look alike come from different tables or passages of the source.
# How the values were obtained:
# TNF-α [1] = experiment: IL-1β stimulated TNF-α production in human whole blood; format: cell-based
# Procedure: Compounds were serially diluted in 100% DMSO (Sigma-Aldrich, D2650) followed by a 10× dilution into RPMI (Gibco, 11875). After the one-hour incubation with the compounds or vehicle, 2 μL of IL-1β (R&D, 201-LB-010) in RPMI (Gibco, 11875) was added for a final concentration of 0.5 μg/mL to each well except for the no stimulus wells. […]
# [2] = in vivo; cited from earlier work
# [3] = tested on: p-HSP27 (phosphorylated heat shock protein 27); experiment: Ex vivo LPS-stimulated p-HSP27 in blood of dosed healthy subjects, PK/PD inhibitory Emax model; design: species or system human
# Procedure: Blood samples of 10 mL were collected for PD analysis. For the SAD cohorts, blood was collected before dosing and 1, 12, and 24 hours after dosing. For the MAD cohorts, on day 1 blood was collected before the morning dose and 4 and 12 hours after the morning dose (prior to the evening dose); on day 7, blood was collected before the morning dose and 4 and 12 hours after the morning dose.
# Additional details of the assays for analyzing p-HSP27 and cytokines are included in the Supplementary Information.
# Pharmacodynamics. PD data analysis was conducted using Microsoft Excel 2010 (Microsoft, Redmond, WA), Meso Scale Discovery Workbench® analysis software (Rockville, MD), and Phoenix WinNonlin, version 8.2.
# Sample Preparation for p-HSP27 Analysis. […] Treatment groups consisted of 3 tubes for group ‘A’, 2 tubes for group ‘B’, and 1 tube for group ‘C’.
# Dimethyl sulfoxide (DMSO) was added to all tubes in groups ‘A’ and ‘C’ to a final concentration of 0.1% (10 μL per mL of a 10% DMSO solution in Dulbecco's Modified Eagle Medium (DMEM) containing 10% fetal bovine serum (FBS) and 1% penicillin/streptomycin/glutamine). Samples were then rocked gently at room temperature. […] Samples were then rocked gently at room temperature for a minimum of 1 hour.
# Samples in groups ‘A’ and ‘B’ were stimulated with lipopolysaccharide at a final concentration of 100 ng/mL for 22 minutes at room temperature. A stock solution of lipopolysaccharide at 1 mg/mL in DMEM containing 10% FBS and 1% penicillin/streptomycin was diluted to 10 μg/mL in DMEM containing 10% FBS and 1% penicillin/streptomycin, and 10 μL of this working solution was added per mL of blood. Samples were gently rocked at room temperature for 11 minutes, then placed upright for 11 minutes prior to peripheral blood mononuclear cells (PBMC) isolation.
# Ten μL of DMEM containing 10% FBS only was added per mL of blood in group ‘C’ for all patient samples (unstimulated samples). Samples were gently rocked at room temperature for 11 minutes, then placed upright for 11 minutes prior to PBMC isolation.
# Upon completion of treatment (lipopolysaccharide stimulated or unstimulated) for each sample, PBMCs were isolated from each human whole blood aliquot in all treatment groups. One mL of blood from each sample was gently layered onto 0.75 mL of Histopaque-1077 in a 2-mL microcentrifuge tube. Histopaque-1077 was maintained at room temperature. The samples were centrifuged for 2 minutes at 16,000×g in an Eppendorf microcentrifuge. The interface and upper layers were removed and added to tubes containing 1 mL cold Dulbecco's phosphate-buffered saline (DPBS). These samples were then centrifuged for 30 seconds at 16,000×g in an Eppendorf microcentrifuge to pellet the cells. The buffer supernatant was removed by aspiration and the pellets were re-suspended in 1 mL of cold DPBS. The pellets from each sample were then re-pelleted, as described above. […]
# Analysis of p-HSP27 (Ser78) Levels Using Luminex Technology. The lysates were analyzed for HSP27 phosphorylation with a custom Milliplex® MAP Human Phospho-HSP27(Ser78) Cell Signaling Magnetic Bead Kit from Millipore Sigma (Burlington, MA) using the kit-prescribed immunoassay protocol for a 96-well solid plate and hand-held magnetic separation block. […]
# clinical = settings: male, human, in vivo
# IL-6 [4] = experiment: Rat whole blood LPS stimulated IL-6; format: cell-based; settings: 100 ng/mL, 4 hr
# [5] = 13-week oral administration non-clinical safety study, mini-pig; format: in vivo; settings: for Cmax / AUC(0-t): 60 mg/kg/day oral; for AUC(0-t): read-out: AUC0-24
# Procedure: Study Design. […] Rats were administered 0 (vehicle), 3, 10 and 30 mg/kg/day, and Mini-pigs were administered 0 (vehicle) 10, 30 and 60 mg/kg/day
# TNF-α [6] = experiment: Mouse neutrophil (mPMN) IL-1α stimulated TNF-α; format: cell-based
# Procedure: Biosynthesis of […] was quantified using MSD technology. […] Cells and compound were stimulated with mouse IL-1α to a final concentration of 10 ng/mL and incubated for 4 hours at 37° C. Supernatants were collected and TNF-α levels quantitated using MSD technology.
# IL-6 [7] = experiment: A549 IL-1β stimulated IL-6 assay; format: cell-based; settings: Homo sapiens, A549 cells, 1 ng/mL, 18 hr
# Procedure: A549 IL-1β stimulated IL-6 Assay—A549 cells (American Type Culture Collection, […]) were grown in Ham's F-12K (Kaighn's) (Gibco, 21127-022) with penicillin-streptomycin (10 U/mL) (Gibco, 15140-122) and 10% fetal bovine serum (Gibco, 26140-079). Cells were grown to 80% confluence then trypsinized to remove cells. Cells were plated in 96 well flat bottom plates in complete media and allowed to recover overnight. Cells were pretreated for one hour in the presence of serially diluted compound or vehicle (0.5% DMSO) (Sigma-Aldrich, D2650) then stimulated with IL-1β (1 ng/mL) (R&D Systems, 201-LB-005) for 18 hours. Culture media was then collected for determination of IL-6 levels using Meso Scale Technology.
# TNF-α [8] = experiment: Rat whole blood LPS stimulated TNF-α; format: cell-based; settings: 100 ng/mL, 4 hr
# [9] = cited from earlier work
# [10] = female, minipig, in vivo, study day 90, females
# [11] = male, minipig, in vivo, study day 90, males
smiles,measurement,setting,value
"Cc1cnc(-c2ccnc(C(C)(C)O)n2)cc1-n1c(C)cc(OCc2ncc(F)cc2F)c(Cl)c1=O (single isomer, unassigned) [ATI-450, 3-chloro-4-((3,5-difluoropyridin-2-yl)methoxy)-2′-(2-(2-hydroxypropan-2-yl)pyrimidin-4-yl)-5′,6-dimethyl-2H-[1,4′-bipyridin]-2-one]",IC50,"TNF-α [1]; Human Whole Blood, IL-1β, 10 ng/mL, 5 hr",12.2 ± 4 nM
same,IC80,TNF-α [1]; human whole blood,0.031 ± 0.006 µg/mL
same,effect in rat streptococcal cell wall arthritis model,[2],joint protective effects and preserved bone mineral density
same,Cmax (Multiple of IC80),"[3]; 50 mg BID, day 7",6.0x
same,Ctrough (Multiple of IC80),"[3]; 50 mg BID, day 7",2.4x
same,IC80,"[3]; Homo sapiens, calculated from IC50, combined SAD and MAD data, read-out: IC80, plasma concentration at 80% of maximal inhibition",0.0367 µg/mL
same,IC50,"[3]; Homo sapiens, inhibitory Emax model, combined SAD and MAD data, read-out: IC50, plasma concentration at half maximal inhibition",0.0092 µg/mL
same,"IC80, plasma concentration at 80% of maximal inhibition","[3]; calculated from IC50, combined SAD and MAD data",0.0367 µg/mL
same,Tmax,clinical,2 h
same,IC50,IL-6 [4],28.3 ± 1.2 nM
same,mortality,"[5]; 13-week oral, up to 60 mg/kg/day",No study drug-related mortality was observed
same,Cmax,[5]; [10],2360 ng/mL
same,AUC(0-t),[5]; [10],22600 ng·h/mL
same,Cmax,[5]; [11],1670 ng/mL
same,AUC(0-t),[5]; [11],14400 ng·h/mL
same,"non-adverse findings, haematology",[5]; males at ≥10 mg/kg/day and females at 60 mg/kg/day,"Slightly increased neutrophil, lymphocyte and platelet counts"
same,NOAEL at 13 weeks,"[5]; minipig, in vivo, 13-week oral, read-out: no-observed adverse effect level (NOAEL)",60 mg/kg/day
same,IC50,"TNF-α [6]; Mus musculus, Neutrophil, mPMN, IL-1α, 10 ng/mL, 4 hr",5 nM
same,IL-1α mediated TNF-α signaling in neutrophils,"TNF-α [6]; mouse IL-1α 10 ng/mL, 4 hours",dose dependently inhibits
same,IC50,IL-6 [7],11.1 ± 7.6 nM
same,IC50,TNF-α [8],14.3 ± 1.9 nM
same,bone marrow IL-1β in murine NOMID model,[9]; relative to placebo,reduction in bone marrow levels of IL-1β
same,effect on disease in murine NOMID model,[9]; transgenic animal model,dramatic attenuation of disease
